Measurements published in patent EP0227593A1, “Use of chelating agents” (THE HOSPITAL FOR SICK CHILDREN, priority 1985, dated 1987).

Legend:
[1] = test system: PB leukemia cell colonies; test: Surface marker analysis of leukemia cell colonies grown with deferoxamine (immunocytochemical assay); type: cell-based, human; design: key to Ia intensity of staining / B4 intensity of staining / OKM1 intensity of staining / MY-4 intensity of staining: strong (+++); moderate (++); weak (+); settings: colonies from cultures containing 2.5 µM deferoxamine
Protocol: Cell Culture Procedure: 2 x 10⁵ T-depleted cells were incubated with 40 % RPMI-methylcellulose, 20 % PHA-LCM, 10 % FCS, irradiated feeder cells (10⁵/dish), 16.6 % RPMI in 35 mm Petri dishes. The culture dishes were placed into a specialized modular incubator chamber (Billups-Rosenberg, Del Mar, CA) in a humidified atmosphere of 5 % O₂, 5 % CO₂ and balanced nitrogen for 3-6 days. After 2 days of incubation, the culture dishes were carefully examined. Colonies were counted at day 4. A cluster of more than 20 cells was defined as a colony. Individual colonies were plucked from the culture plates and smeared on microscope slides for further evaluation, using Wright stain and non-specific esterase staining. For control, 2 x 10⁵ irradiated feeder cells were cultured in the same assay system in each experiment to exclude their potential for colony formation Immunocytochemical Method: The cell surface antigens of air dried smears were detected using monoclonal antibodies and intestinal alkaline phosphatase, as previously described. This assay was performed to detect surface antigens on patients' PB and BM smears and colonies plucked from cultures. The slides were counter- stained in hematoxylin for light microscopy and the presence of surface antigen was indicated as bright red granular cellular inclusions. Morphologic details were well preserved, and a very high degree of correlation between morphology and surface antigen expression was observed. The intensity of staining was defined as strong (+++), moderate (++) and weak (+). Immunofluorescence Method: The cell surface phenotype was determined by indirect cell-surface fluorescence: A fluorescein-conjugated goat anti-mouse IgG (FAb')₂ was used as second antibody. The labelling was performed at room temperature in the presence of 0.2 % sodium azide. The percentage of cells with surface fluorescence was determined by counting cells stained in three replicate wells using an inverted phase-fluorescent microscope. Monoclonal Antibodies: The following monoclonal antibodies were used in these studies: anti-OKIa (Ortho Diagnostic Systems Inc. Raritan, NJ) to detect HLA-D framework antigen, anti-MY-7, anti-Mol and anti-MY-4 (coulter Immunology) to identify myelomonocytic markers, anti-Ig. anti-BA1, anti-BA2, anti-B1, and anti-B4 (Becton-Dickinson) to recognize cells of the B-cell lineage, anti-J5 (Coulter Immunology) to recognize cells bearing common ALL (CALLA) antigen and anti-Leu-1 and anti-Leu-4 (Coulter Immunology) to recognize cells of the T-cell lineage.
DFO and Blast Cell Differentiation: Individual blast colonies from the culture plates containing DFO 2.5 µM were characterized (Table 2). Compared to colonies grown without exposure to DFO, a marked change in cell surface antigen expression was observed.
PB leukemia cell colonies were plucked at random from cultures containing 2.5 µM deferoxamine compared to cultures without deferoxamine using the immunocytochemical assay.

[2] = test system: peripheral blood blast cell numbers; test: 20-day experimental treatment protocol in a leukemia patient: WBC and blast counts; type: in vivo, human
Protocol: With informed consent and following an approval by the Human Experimentation Committee of our institution, an experimental protocol was initiated: DFO, dissolved in sterile water was given by continuous infusion of 10 mg/kg/hour; cytosine arabinoside (Ara-C) dissolved in saline was given by i.v. push, 5 mg/kg/dose. When used consecutively, DFO was stopped 8-12 hours prior to cytosine arabinoside.
Deferoxamine (DFO) was given by continuous infusion 10 mg/kg/hr Cytosine-arabinoside (Ara-C) was given by i.v. push, 5 mg/kg/dose.

HL-60 cells = test: Colony growth of HL-60 cells; type: cell-based, human
Protocol: HL-60 cells, a promyeloctic leukemia cell line originally developed by Dr. R. Gallo, NIH, were used. Cells were grown in RPMI supplemented with 10 % heat inactivated fetal calf serum (FCS, Flow Laboratories, Rockville, MO) and 2 mM glutamine (Gibco, Berkely, CA), at densities ranging from 1-2 x 10⁵/ml to 1-10⁶/ml, in a 5 % CO₂ humidified atmosphere at 37°C.
HL-60 cells (10⁴/ml) were plated in 0.8 % methycellulose in RPMI-1640 medium supplemented with 20 % heat inactivated (56°C, 30 min) fetal calf serum at a final volume of 1 ml/culture plate. Cultures were set up in duplicates and maintained at 37°C in a 5 % CO₂ humidified atmosphere. Deferoxamine was dissolved in iron-free RPMI culture medium and added at the initiation of culture at different concentrations (1-10 µM). Colonies were counted at 7 days using an inverted microscope. A cluster of more than 20 cells was defined as a colony. Individual colonies were plucked from culture plates spread on glass slides and morphologically assessed after preparation with Wright's stain and non-specific esterase in the presence of fluoride (29). The self renewal capacity of cells was assessed according to McCulloch et al (30). RPMI-1640 medium was added to culture dishes for 2 hrs; the contents of each dish were then transferred into a tube, centrifuged and washed with medium three times. Cells from each dish were counted separately, and viability was assessed by trypan blue dye exclusion. Cells (1x10⁴/ml) from each dish were recultured in 0.8 % methylcellulose as before.

Lewis lung carcinoma = test: Tumour growth and metastases of Lewis lung carcinoma in mice; type: in vivo; settings: 11 injections
Protocol: Female C57B16 mice (10 mice/group, 18-22 g body weight) were i.m. injected into the left hind leg with 0.1 ml of a tumour cell suspension of Lewis lung carcinoma (day 0).
Nine groups of animals were investigated. The test compounds were s.c. administered as follows: physiological saline: once daily for eleven days starting from day 0 up to day 10. DFO: 0.5 ml in distilled water in a dose of 10 and 30 mg/kg once daily for eleven days, on day 0 up to day 10 after tumour inocculation. 10-EDAM: 0.5 ml in distilled water in a dose of 3 and 6 mg/kg, once daily on days 1, 3, 5, 7 and 9 after tumour inocculation.
Both hind legs were removed from the body, weighed, and the difference between the tumour bearing and the tumour free leg was taken as the tumour weight of one idividual mouse.
Lungs were filled up with Pelikan-ink via the trachea, fixed in Fekete-solution and metastases (white spot on black back-ground) on the lung surface were counted microscopically.

[3] = Day 1, DFO continuous infusion 10 mg/kg/hr, 24 h
[4] = Day 3, after first 48 hours of DFO, Ara-C starts Day 3

CC(=O)N(O)CCCCCNC(=O)CCC(=O)N(O)CCCCCNC(=O)CCC(=O)N(O)CCCCCN [DFO, desferioxamine methanesulfonate]
B4 Positive [1]: 30%
B4 intensity of staining [1]: +++
CALLA Positive [1]: 0%
Ia Positive [1]: 80%
Ia intensity of staining [1]: +++
Leu-1 Positive [1]: 0%
Leu-4 Positive [1]: 0%
MY-4 Positive [1]: 60%
MY-4 intensity of staining [1]: ++
OKM1 Positive [1]: > 90%
OKM1 intensity of staining [1]: +++
Blasts [2, 3]: 4.22e+10 L⁻¹
WBC [2, 3]: 6.25e+10 L⁻¹
Blasts [2, 4]: 4.09e+10 L⁻¹
WBC [2, 4]: 6.39e+10 L⁻¹
inhibition of HL-60 colony proliferation (HL-60 cells; 10 µm DFO): 100%
inhibition at 3.5 µM (HL-60 cells; Homo sapiens, HL-60, 3.5 µM DFO, read-out: inhibition of HL-60 colony proliferation): 50%
Number of lung metastases % of control (Lewis lung carcinoma; group 2: DFO 10 mg/kg s.c.): 103%
Number of lung metastases x̄ ± SD (Lewis lung carcinoma; group 2: DFO 10 mg/kg s.c.): 69 ± 26
Tumour weight % of control (Lewis lung carcinoma; group 2: DFO 10 mg/kg s.c.): 100%
Tumour weight x̄ ± SD (Lewis lung carcinoma; group 2: DFO 10 mg/kg s.c.): 7.56 ± 0.32 g
Number of lung metastases % of control (Lewis lung carcinoma; group 3: DFO 30 mg/kg s.c.): 78%
Number of lung metastases x̄ ± SD (Lewis lung carcinoma; group 3: DFO 30 mg/kg s.c.): 52 ± 16
Tumour weight % of control (Lewis lung carcinoma; group 3: DFO 30 mg/kg s.c.): 106%
Tumour weight x̄ ± SD (Lewis lung carcinoma; group 3: DFO 30 mg/kg s.c.): 7.99 ± 0.42 g
